71 compounds from patent US10820591B2, “Substituted sulfonyl amides for controlling animal pests” (Bayer Aktiengesellschaft, priority 2016, dated 2020) can be followed below.

The assay concerns Meloidogyne incognita. Kind of assay: Meloidogyne incognita test (sand, lettuce, gall formation). Type of assay: in vivo. To be noted: after 14 days. An outline of the steps:
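Vessels held sand, diluted compound solution, M. incognita egg/larvae suspension and lettuce seeds, and the plants grew for 14 days. Efficacy in % came from root gall formation: 100% means no galls, 0% means galls equal to the untreated control.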

[1] abbreviates: Meloidogyne incognita, 336 h, 20 ppm, read-out: nematicidal efficacy (formation of galls).

Turning to `COc1ccc(Cl)c(S(=O)(=O)NC(=O)c2cn(-c3c(Cl)cccc3Cl)cn2)c1` [I-251], the pest or weed control at 20 ppm under setting [1] was determined as 90%.

For the compound `O=C(NS(=O)(=O)c1ccc(Cl)cc1)c1cn(-c2ccc(Cl)c(Cl)c2)cn1` [I-202], under setting [1], the pest or weed control at 20 ppm amounted to 70%.

`COc1ccc(Cl)c(S(=O)(=O)NC(=O)c2cn(-c3cc(C)cc(C(F)(F)F)c3)cn2)c1` [I-281]: the pest or weed control at 20 ppm under setting [1] came out at 90%.

Turning to `COc1ccc(Br)c(S(=O)(=O)NC(=O)c2nc(Cl)n(C3CC3C(F)(F)F)c2Cl)c1` (centres unmarked) [I-465], the pest or weed control at 20 ppm under setting [1] was 100%.

Take `O=C(NS(=O)(=O)c1ccccc1Cl)c1cn(-c2cc(Cl)cc(C(F)(F)F)c2)cn1` [I-278]: under setting [1], the pest or weed control at 20 ppm was 90%.

Take `O=C(NS(=O)(=O)c1ccc(Cl)cc1)c1ncn(CC(F)(F)C(F)(F)F)c1Cl` [I-078]: the pest or weed control at 20 ppm under setting [1] came to 100%.

Consider `O=C(NS(=O)(=O)c1c(Cl)cccc1Cl)c1cn(-c2cc(F)cc(C(F)(F)F)c2)cn1` [I-239], for which the pest or weed control at 20 ppm under setting [1] amounted to 100%.

`COc1ccc(S(=O)(=O)NC(=O)c2cn(-c3cc(Cl)cc(Cl)c3)c(C)n2)cc1` [I-411]: the pest or weed control at 20 ppm under setting [1] came to 100%.

Consider `Cc1ccc(-n2cnc(C(=O)NS(=O)(=O)c3ccccc3Cl)c2)cc1` [I-210], for which the pest or weed control at 20 ppm under setting [1] was 100%.

`COc1ccccc1S(=O)(=O)NC(=O)c1cn(C)c(SC(C)C)n1` [I-478]: the pest or weed control at 20 ppm under setting [1] stood at 70%.

Turning to `O=C(NS(=O)(=O)c1ccc(Cl)cc1)c1ncn(-c2ccc(Cl)cc2)c1Cl` [I-418], the pest or weed control at 20 ppm under setting [1] was 100%.

Regarding `Cc1ccc(C)c(S(=O)(=O)NC(=O)c2cn(-c3cc(Cl)cc(C(F)(F)F)c3)cn2)c1` [I-345], under setting [1], the pest or weed control at 20 ppm was 100%.

For `CCc1nc(C(=O)NS(=O)(=O)c2cc(OC)ccc2Cl)cn1-c1cc(F)cc(C(F)(F)F)c1` [I-404], under setting [1], the pest or weed control at 20 ppm came to 90%.

`Cc1nc(C(=O)NS(=O)(=O)c2c(Cl)cccc2Cl)cn1-c1ccc(Cl)cc1` [I-258]: under setting [1], the pest or weed control at 20 ppm is 70%.

Consider `COc1ccc(S(=O)(=O)NC(=O)c2ncn(-c3ccccc3C(F)(F)F)c2Cl)cc1` [I-430], for which the pest or weed control at 20 ppm under setting [1] came to 90%.

As for `COc1ccc(Cl)c(S(=O)(=O)NC(=O)c2ncn(-c3ccc(Cl)cc3Cl)c2C(F)F)c1` [I-482], the pest or weed control at 20 ppm under setting [1] is 90%.

For `O=C(NS(=O)(=O)c1ccccc1)c1cn(-c2cc(Cl)c(Br)c(Cl)c2)cn1` [I-312], under setting [1], the pest or weed control at 20 ppm was found to be 90%.

As to `Cc1ccc(-n2cnc(C(=O)NS(=O)(=O)c3c(Cl)cccc3Cl)c2)cc1` [I-212], the pest or weed control at 20 ppm under setting [1] was determined as 90%.

For the compound `COc1ccc(Cl)c(S(=O)(=O)NC(=O)c2cn(-c3cc(Cl)cc(Cl)c3)cn2)c1` [I-188], the pest or weed control at 20 ppm under setting [1] turned out to be 100%.

For the compound `Cn1nc(C(=O)NS(=O)(=O)c2ccccc2Cl)cc1-c1c(F)cccc1F` [I-142], the pest or weed control at 20 ppm under setting [1] turned out to be 100%.

For the compound `Cc1ccccc1CS(=O)(=O)NC(=O)c1ncn(CCC(F)(F)F)c1Cl` [I-093], the pest or weed control at 20 ppm under setting [1] was found to be 100%.

Take `COc1ccc(Cl)c(S(=O)(=O)NC(=O)c2cc(-c3ccccc3Cl)n(C)n2)c1` [I-130]: under setting [1], the pest or weed control at 20 ppm turned out to be 90%.

Take `COc1ccc(Cl)c(S(=O)(=O)NC(=O)c2cn(-c3cc(Cl)cc(Cl)c3)cn2)c1` [I-217]: under “20 ppm”, the “nematicidal efficacy (formation of galls)” value was determined as 90%.

Take `COc1ccc(Cl)c(S(=O)(=O)NC(=O)c2cn(-c3cc(Cl)cc(C(F)(F)F)c3)cn2)c1` [I-280]: the pest or weed control at 20 ppm under setting [1] stood at 90%.

As to `O=C(NS(=O)(=O)c1c(Cl)cccc1Cl)c1cn(-c2ccc(C(F)(F)F)cc2Cl)cn1` [I-198], under setting [1], the pest or weed control at 20 ppm amounted to 100%.

Take `Cc1nc(C(=O)NS(=O)(=O)c2c(Cl)cccc2SC(C)C)cn1-c1cc(F)cc(F)c1` [I-388]: the pest or weed control at 20 ppm under setting [1] worked out at 100%.

Turning to `CSc1nc(C(=O)NS(=O)(=O)c2ccccc2Cl)c(Cl)n1CCC(F)(F)F` [I-446], the pest or weed control at 20 ppm under setting [1] worked out at 90%.

Take `Cn1nc(C(=O)NS(=O)(=O)c2cc(Cl)ccc2Cl)cc1-c1c(F)cccc1F` [I-143]: under setting [1], the pest or weed control at 20 ppm is 90%.

For `CCCn1cnc(C(=O)NS(=O)(=O)c2ccccc2Cl)c1Cl` [I-040], under setting [1], the pest or weed control at 20 ppm turned out to be 70%.

On to `COc1ccc(Cl)c(S(=O)(=O)NC(=O)c2cn(-c3cc(Cl)cc(Cl)c3)c(Br)n2)c1` [I-441], for which the pest or weed control at 20 ppm under setting [1] is 100%.

As for `CC(C)S(=O)(=O)NC(=O)c1cn(C)c(C(F)(F)F)n1` [I-471], under setting [1], the pest or weed control at 20 ppm was 90%.

For `Cc1nc(C(=O)NS(=O)(=O)c2c(F)cccc2NC2CC2)cn1-c1cc(Cl)cc(Cl)c1` [I-379], the pest or weed control at 20 ppm under setting [1] was determined as 100%.

In the case of `COc1ccc(Cl)c(S(=O)(=O)NC(=O)c2cn(-c3cc(F)cc(F)c3)c(C)n2)c1` [I-320], the pest or weed control at 20 ppm under setting [1] was 100%.

In the case of `O=C(NS(=O)(=O)c1ccc(Cl)cc1)c1cn(-c2cc(Cl)ccc2Cl)cn1` [I-204], the pest or weed control at 20 ppm under setting [1] was 100%.

As for `CSc1cccc(Cl)c1S(=O)(=O)NC(=O)c1nc(Cl)n(C2CC2C(F)(F)F)c1Cl` (centres unmarked) [I-463], the pest or weed control at 20 ppm under setting [1] was found to be 100%.

On to `COc1ccc(S(=O)(=O)NC(=O)c2ncn(CCCCl)c2Cl)cc1` [I-050], for which the pest or weed control at 20 ppm under setting [1] came out at 90%.

`O=C(NS(=O)(=O)c1ccccc1Cl)c1cn(Cc2cccc(Cl)c2)cn1` [I-159]: the pest or weed control at 20 ppm under setting [1] was determined as 100%.

For the compound `O=C(NS(=O)(=O)c1c(Cl)cccc1Cl)c1cn(-c2cc(Br)cc(C(F)(F)F)c2)cn1` [I-297], the pest or weed control at 20 ppm under setting [1] turned out to be 90%.

As to `O=C(NS(=O)(=O)c1cc(C(F)(F)F)ccc1Cl)c1nc(Cl)n(C2CC2C(F)(F)F)c1Cl` (centres unmarked) [I-468], the pest or weed control at 20 ppm under setting [1] was found to be 100%.

As for `CC(C)Sc1nc(C(=O)NS(=O)(=O)c2ccccc2Cl)cn1C` [I-476], the pest or weed control at 20 ppm under setting [1] came to 70%.

`COc1ccc(Cl)cc1S(=O)(=O)NC(=O)c1cn(-c2cc(Cl)ccc2Cl)cn1` [I-231]: the pest or weed control at 20 ppm under setting [1] came out at 100%.

`Cc1nc(C(=O)NS(=O)(=O)c2cc(OC(C)C)ccc2Cl)cn1-c1cc(Cl)cc(Cl)c1` [I-366]: the pest or weed control at 20 ppm under setting [1] came out at 100%.

Regarding `COc1ccc(Cl)c(S(=O)(=O)NC(=O)c2cn(-c3cc(Br)cc(Br)c3)cn2)c1` [I-282], the pest or weed control at 20 ppm under setting [1] was found to be 90%.

With `Cc1nc(C(=O)NS(=O)(=O)c2cccc(Cl)c2)cn1-c1ccc(Cl)cc1` [I-261], the pest or weed control at 20 ppm under setting [1] was 100%.

For the compound `CC(=O)c1ccc(Cl)c(S(=O)(=O)NC(=O)c2cn(-c3cc(Cl)cc(Cl)c3)c(C)n2)c1` [I-372], the pest or weed control at 20 ppm under setting [1] stood at 100%.

Consider `CCc1ccc(C)c(S(=O)(=O)NC(=O)c2nc(Cl)n(C3CC3C(F)(F)F)c2Cl)c1` (centres unmarked) [I-466], for which, under setting [1], the pest or weed control at 20 ppm was 100%.

`O=C(NS(=O)(=O)c1ccccc1Cl)c1cn(-c2ccc(Cl)c(Cl)c2)cn1` [I-196]: under setting [1], the pest or weed control at 20 ppm was determined as 100%.

`O=C(NS(=O)(=O)Cc1ccc(Cl)cc1)c1ncn(CCC(F)(F)F)c1Cl` [I-084]: under setting [1], the pest or weed control at 20 ppm is 100%.

On to `Cn1nc(C(=O)NS(=O)(=O)c2c(F)cccc2F)cc1-c1c(F)cccc1F` [I-146], for which, under setting [1], the pest or weed control at 20 ppm stood at 100%.

For the compound `O=C(NS(=O)(=O)c1ccccc1)c1cn(-c2ccccc2F)cn1` [I-221], the pest or weed control at 20 ppm under setting [1] amounted to 90%.

Regarding `Cc1nc(C(=O)NS(=O)(=O)c2ccccc2Cl)c(Cl)n1-c1cc(Cl)cc(Cl)c1` [I-111], under setting [1], the pest or weed control at 20 ppm turned out to be 100%.

In the case of `O=C(NS(=O)(=O)c1ccc(Cl)cc1)c1cn(CC(F)(F)F)cn1` [I-025], the pest or weed control at 20 ppm under setting [1] was found to be 90%.

As for `O=C(NS(=O)(=O)c1ccccc1)c1ncn(-c2ccc(Cl)cc2)c1Cl` [I-414], the pest or weed control at 20 ppm under setting [1] was found to be 100%.

As for `Cn1nc(C(=O)NS(=O)(=O)c2cc(Cl)ccc2Cl)cc1-c1ccc(Cl)cc1` [I-131], the pest or weed control at 20 ppm under setting [1] worked out at 90%.

In the case of `Cn1nc(C(=O)NS(C)(=O)=O)cc1-c1ncccc1Cl` [I-128], the pest or weed control at 20 ppm under setting [1] worked out at 70%.

On to `O=C(NS(=O)(=O)c1ccc(Cl)cc1Cl)c1cn(-c2ccc(Cl)cc2Cl)cn1` [I-208], for which the pest or weed control at 20 ppm under setting [1] worked out at 100%.

`COc1ccc(Br)c(S(=O)(=O)NC(=O)c2cn(-c3cc(Cl)cc(Cl)c3)cn2)c1` [I-348]: under setting [1], the pest or weed control at 20 ppm amounted to 100%.

For `COc1ccc(Cl)c(S(=O)(=O)NC(=O)c2cn(-c3cc(Br)cc(C(F)(F)F)c3)cn2)c1` [I-279], under setting [1], the pest or weed control at 20 ppm was 90%.

On to `O=C(NS(=O)(=O)c1ccc(Cl)cc1Cl)c1cn(-c2cc(Cl)c(Cl)c(Cl)c2)cn1` [I-306], for which, under setting [1], the pest or weed control at 20 ppm came to 90%.

Consider `O=C(NS(=O)(=O)c1cccc(C(F)(F)F)c1)c1ncn(CCC(F)(F)F)c1Cl` [I-018], for which, under setting [1], the pest or weed control at 20 ppm was determined as 90%.

As to `O=C(NS(=O)(=O)c1cccc(Cl)c1)c1cn(-c2ccc(C(F)(F)F)cc2Cl)cn1` [I-207], under setting [1], the pest or weed control at 20 ppm is 100%.

As to `O=C(NS(=O)(=O)c1c(Cl)cccc1Cl)c1cn(-c2ccccc2OC(F)(F)F)cn1` [I-226], the pest or weed control at 20 ppm under setting [1] amounted to 100%.

In the case of `O=C(NS(=O)(=O)c1c(Cl)cccc1Cl)c1cn(Cc2ccc(Cl)cc2)cn1` [I-149], the pest or weed control at 4 ppm (Meloidogyne incognita, 336 h, 4 ppm, read-out: nematicidal efficacy (formation of galls)) amounted to 90%.

With `Cc1nc(C(=O)NS(=O)(=O)c2c(F)cccc2Cl)cn1-c1cc(F)cc(Cl)c1` [I-396], the pest or weed control at 20 ppm under setting [1] is 90%.

`CCOc1ccc(Cl)c(S(=O)(=O)NC(=O)c2cn(-c3cc(Cl)cc(Cl)c3)cn2)c1` [I-349]: the pest or weed control at 20 ppm under setting [1] was found to be 100%.

As to `CSc1cccc(Cl)c1S(=O)(=O)NC(=O)c1cn(-c2cc(F)cc(Cl)c2)c(C)n1` [I-382], under setting [1], the pest or weed control at 20 ppm is 100%.

With `COc1ccc(Cl)c(S(=O)(=O)NC(=O)c2cn(-c3cc(F)cc(Cl)c3)cn2)c1` [I-247], the pest or weed control at 20 ppm under setting [1] worked out at 100%.

As to `CC(C)S(=O)(=O)NC(=O)c1cn(C)c(Cc2ccccc2Cl)n1` [I-117], the pest or weed control at 20 ppm under setting [1] was 90%.

Consider `O=C(NS(=O)(=O)c1c(Cl)cccc1Cl)c1cn(-c2cc(Cl)c(Br)c(Cl)c2)cn1` [I-313], for which the pest or weed control at 20 ppm under setting [1] stood at 90%.

In the case of `O=C(NS(=O)(=O)c1c(Cl)cccc1Cl)c1cn(-c2cc(Cl)cc(Cl)c2)cn1` [I-187], under setting [1], the pest or weed control at 20 ppm was found to be 100%.

Regarding `CC(CC(F)(F)F)n1cnc(C(=O)NS(=O)(=O)c2cccc(Cl)c2)c1Cl` (centres unmarked) [I-072], under setting [1], the pest or weed control at 20 ppm turned out to be 100%.
